Reference: patent publication US9133183B2, “Imidazolidinones and analogs exhibiting anti-cancer and anti-proliferative activities” (Deciphera Pharmaceuticals, LLC, priority 2013, dated 2015)
Like-named read-outs stand apart in the source and are kept apart here.

Columns and labels:
[1] = target: unphosphorylated c-FMS kinase (uFMS, Seq. ID no. 1) (Homo sapiens (Human), UniProt P07333); test: uFMS kinase assay (ADP production coupled to pyruvate kinase/lactate dehydrogenase); type: biochemical; settings: enzymatic assay, ATP 500 μM
Sequence of unphosphorylated c-FMS kinase (uFMS, Seq. ID no. 1) (P07333 538-972): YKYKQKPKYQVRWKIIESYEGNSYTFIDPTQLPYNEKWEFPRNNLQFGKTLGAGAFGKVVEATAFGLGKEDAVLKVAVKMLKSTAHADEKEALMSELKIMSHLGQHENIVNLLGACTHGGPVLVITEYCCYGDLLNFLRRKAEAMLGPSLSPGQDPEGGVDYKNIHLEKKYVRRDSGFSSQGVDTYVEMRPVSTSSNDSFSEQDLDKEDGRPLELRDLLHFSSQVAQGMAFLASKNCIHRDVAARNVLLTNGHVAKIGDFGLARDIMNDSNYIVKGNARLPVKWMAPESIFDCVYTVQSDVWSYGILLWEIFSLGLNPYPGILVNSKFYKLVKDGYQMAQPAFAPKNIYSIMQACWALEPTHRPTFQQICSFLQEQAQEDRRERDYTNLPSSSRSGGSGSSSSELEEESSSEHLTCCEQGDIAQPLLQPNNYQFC
How it was run: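 Unphosphorylated FMS (10 nM) with polyE4Y 1 mg/mL and 500 μM ATP in 90 mM Tris pH 7.5, 10 mM MgCl2, 0.2% octyl-glucoside, 1% DMSO. ADP formation was coupled via pyruvate kinase/LDH to NADH oxidation, followed at A340 for 4 h at 30° C.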

[2] = target: c-FMS kinase in THP-1 cells (Homo sapiens (Human), UniProt P07333); test: Phospho-FMS ELISA assay in THP-1 cells; type: cell-based; settings: 4 h compound, M-CSF stimulation 5 min; read-out: pFMS inhibition in THP-1 cells
Sequence of c-FMS kinase in THP-1 cells (P07333 20-972): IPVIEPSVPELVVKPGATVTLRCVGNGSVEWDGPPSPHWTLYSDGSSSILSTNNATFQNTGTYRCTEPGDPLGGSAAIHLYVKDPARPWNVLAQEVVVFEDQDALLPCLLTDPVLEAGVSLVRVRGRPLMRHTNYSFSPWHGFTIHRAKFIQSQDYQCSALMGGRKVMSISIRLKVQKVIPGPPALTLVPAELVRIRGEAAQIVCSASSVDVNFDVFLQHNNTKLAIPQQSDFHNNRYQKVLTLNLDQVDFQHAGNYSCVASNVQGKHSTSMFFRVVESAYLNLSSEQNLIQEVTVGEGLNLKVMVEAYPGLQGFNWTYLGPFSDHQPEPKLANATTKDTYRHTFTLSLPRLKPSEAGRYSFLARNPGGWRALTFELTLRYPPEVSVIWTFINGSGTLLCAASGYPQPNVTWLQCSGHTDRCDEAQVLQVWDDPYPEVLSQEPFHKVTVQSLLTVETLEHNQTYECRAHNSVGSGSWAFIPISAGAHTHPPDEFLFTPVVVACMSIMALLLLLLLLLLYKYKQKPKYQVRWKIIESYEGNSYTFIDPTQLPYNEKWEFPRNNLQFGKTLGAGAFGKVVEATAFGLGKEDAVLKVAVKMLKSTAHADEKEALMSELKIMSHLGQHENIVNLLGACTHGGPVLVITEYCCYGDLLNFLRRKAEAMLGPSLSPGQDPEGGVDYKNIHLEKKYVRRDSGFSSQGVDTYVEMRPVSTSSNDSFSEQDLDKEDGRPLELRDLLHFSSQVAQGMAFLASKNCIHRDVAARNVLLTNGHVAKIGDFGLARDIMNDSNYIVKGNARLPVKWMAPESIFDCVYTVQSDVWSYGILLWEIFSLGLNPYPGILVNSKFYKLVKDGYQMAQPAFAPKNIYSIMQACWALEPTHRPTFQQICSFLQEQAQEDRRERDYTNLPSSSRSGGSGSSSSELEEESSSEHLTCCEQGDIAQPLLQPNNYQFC
Procedure: THP-1 cells (catalog #TIB-202) were obtained from the ATCC. Briefly, cells were grown in RPMI 1640 supplemented with 10% characterized fetal bovine serum, 1% sodium pyruvate, 1% Penicillin-Streptomycin-Glutamine (PSG) and 55 uM 2-mercaptoethanol (Invitrogen, Carlsbad, Calif.) at 37 degrees Celsius, 5% CO2, 95% humidity. Cells were allowed to expand until reaching 70-95% confluency at which point they were subcultured or harvested for assay use.
A serial dilution of test compound was diluted 1:100 in assay medium (RPMI 1640 supplemented with 10% characterized fetal bovine serum) in a 96 well black clear bottom plate (Corning, Corning, N.Y.). In a separate 96 well black clear bottom plate, one hundred and fifty thousand THP-1 cells were added per well in 100 μL in assay medium. Fifty microliters of diluted compound was then added to the cells. Plates were incubated for 4 hours at 37 degrees Celsius, 5% CO2, 95% humidity. At the end of the incubation period, cells were stimulated with 50 μL of a 100 nM solution of recombinant human M-CSF (catalog #216-MC, R & D Systems, Minneapolis, Minn.) in assay medium and the plate was incubated for 5 minutes at 37 degrees Celsius, 5% CO2, 95% humidity. Lysates were prepared and used to perform the phospho-FMS ELISA as described by the manufacturer (catalog #DYC3268, R & D Systems, Minneapolis, Minn.). GraphPad Prism was used to calculate IC50 values obtained from data generated from the ELISA assay.

M-NFS-60 cells = test: M-NFS-60 cell proliferation assay (resazurin); type: cell-based; settings: 67 h incubation
How it was run: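 Cells kept in medium containing 20 ng/mL mouse recombinant M-CSF. Fluorescence was read at ex 540/em 600 nm, and IC50 was fitted from percent inhibition across a range of inhibitor concentrations.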

osteoclast precursors = test: Osteoclast tartrate-resistant acid phosphatase assay; type: cell-based; settings: 7-14 days, RANKL and M-CSF
[3] = target: unphosphorylated PDGFRβ kinase (uPDGFRβ, Seq. ID No. 3) (Homo sapiens (Human), UniProt P09619); test: Unphosphorylated PDGFRβ kinase assay (coupled pyruvate kinase/lactate dehydrogenase); type: biochemical; settings: enzymatic assay, ATP 500 μM
Sequence of unphosphorylated PDGFRβ kinase (uPDGFRβ, Seq. ID No. 3) (P09619 557-1106): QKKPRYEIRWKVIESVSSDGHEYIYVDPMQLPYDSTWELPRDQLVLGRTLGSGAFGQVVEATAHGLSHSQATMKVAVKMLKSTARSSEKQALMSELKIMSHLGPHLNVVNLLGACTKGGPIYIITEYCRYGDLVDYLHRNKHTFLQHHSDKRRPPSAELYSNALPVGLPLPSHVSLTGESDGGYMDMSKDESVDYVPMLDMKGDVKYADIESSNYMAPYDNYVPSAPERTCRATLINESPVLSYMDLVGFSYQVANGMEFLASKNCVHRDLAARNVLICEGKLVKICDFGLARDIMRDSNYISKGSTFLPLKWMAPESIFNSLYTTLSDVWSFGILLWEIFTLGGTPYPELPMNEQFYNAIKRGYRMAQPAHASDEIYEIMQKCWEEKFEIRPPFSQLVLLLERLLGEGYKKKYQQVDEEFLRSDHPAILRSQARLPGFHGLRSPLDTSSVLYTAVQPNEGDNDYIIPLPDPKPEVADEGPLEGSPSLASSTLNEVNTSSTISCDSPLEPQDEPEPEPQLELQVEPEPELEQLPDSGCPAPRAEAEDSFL
How it was run: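 Construct residues 557-1106, unphosphorylated, 15.7 nM, with poly E4Y 2.5 mg/mL and 500 μM ATP, Tris pH 7.5, 1% DMSO, 30 °C. ADP coupled to NADH oxidation via PK/LDH, A340 followed 4 h; rate from 1.5-2.5 h versus no-compound control, IC50 from percent-inhibition series.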

[4] = target: unphosphorylated c-KIT kinase (uKIT, Seq. ID no. 2) (Homo sapiens (Human), UniProt P10721); test: uKit kinase assay (coupled pyruvate kinase/lactate dehydrogenase); type: biochemical; settings: enzymatic assay, ATP 2000 μM
Sequence of unphosphorylated c-KIT kinase (uKIT, Seq. ID no. 2) (P10721 other isoform, or with tags, fused parts or gaps): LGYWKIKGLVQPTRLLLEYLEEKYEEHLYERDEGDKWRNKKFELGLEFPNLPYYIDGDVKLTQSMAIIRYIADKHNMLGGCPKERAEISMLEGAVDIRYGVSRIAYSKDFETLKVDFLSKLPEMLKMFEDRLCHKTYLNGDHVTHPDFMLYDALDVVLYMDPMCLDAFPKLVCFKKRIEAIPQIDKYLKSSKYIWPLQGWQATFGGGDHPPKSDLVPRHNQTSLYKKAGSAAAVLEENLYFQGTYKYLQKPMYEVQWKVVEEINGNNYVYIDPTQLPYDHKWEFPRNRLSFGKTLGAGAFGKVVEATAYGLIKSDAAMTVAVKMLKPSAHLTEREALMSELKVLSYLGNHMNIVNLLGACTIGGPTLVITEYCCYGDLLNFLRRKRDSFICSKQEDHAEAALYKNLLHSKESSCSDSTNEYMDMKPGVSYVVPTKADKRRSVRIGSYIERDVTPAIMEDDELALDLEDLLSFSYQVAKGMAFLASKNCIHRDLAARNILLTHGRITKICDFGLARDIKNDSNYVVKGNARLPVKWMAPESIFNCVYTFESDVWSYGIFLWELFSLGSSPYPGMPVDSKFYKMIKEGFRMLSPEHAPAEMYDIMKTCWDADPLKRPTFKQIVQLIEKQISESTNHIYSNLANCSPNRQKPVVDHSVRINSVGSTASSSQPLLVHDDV
How it was run: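 The read-out was a continuous PK/LDH-coupled decrease in NADH absorbance at 340 nm, monitored at 30 °C over 4 h. IC50 came from % inhibition based on rates at 3–4 h. The GST-tagged unphosphorylated KIT (12 nM) was used with polyE4Y substrate, 2000 μM ATP and 10 mM Mg2+ at pH 7.5, with serially diluted compound.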

Compound	IC50 ([1]; read-out: uFMS)	IC50 [2]	IC50 (M-NFS-60 cells)	IC50 (osteoclast precursors; Osteoclast)	IC50 ([1]; uFMS)	IC50 [3]	IC50 [4]	IC50 (osteoclast precursors)
Cc1nc(NC(=O)N2CCN(C3CCOCC3)C2=O)ccc1Oc1ccnc(-c2cn[nH]c2)c1 [Example 9, N-(5-((2-(1H-pyrazol-4-yl)pyridin-4-yl)oxy)-6-methylpyridin-2-yl)-2-oxo-3-(tetrahydro-2H-pyran-4-yl)imidazolidine-1-carboxamide]	10 to 100 nM	10 to 100 nM	100 to 1000 nM	10 to 100 nM	–	–	–	–
Cn1cc(-c2cc(Oc3ccc(NC(=O)N4CCN(C5CCOCC5)C4=O)cc3Cl)ccn2)cn1 [Example 96, N-(3-chloro-4-((2-(1-methyl-1H-pyrazol-4-yl)pyridin-4-yl)oxy)phenyl)-2-oxo-3-(tetrahydro-2H-pyran-4-yl)imidazolidine-1-carboxamide]	10 to 100 nM	10 to 100 nM	> 1000 nM	100 to 1000 nM	–	–	–	–
Cn1cc(-c2cc(Oc3ccc(NC(=O)N4CCN(C5CCOCC5)C4=O)nc3)ncn2)cn1 [Example 8, N-(5-((6-(1-methyl-1H-pyrazol-4-yl)pyrimidin-4-yl)oxy)pyridin-2-yl)-2-oxo-3-(tetrahydro-2H-pyran-4-yl)imidazolidine-1-carboxamide]	10 to 100 nM	10 to 100 nM	100 to 1000 nM	10 to 100 nM	–	–	–	–
CC(=O)Nc1cc(Oc2cc(F)c(NC(=O)N3CCN(C4CCOCC4)C3=O)cc2Cl)ccn1 [Example 97, N-(4-((2-acetamidopyridin-4-yl)oxy)-5-chloro-2-fluorophenyl)-2-oxo-3-(tetrahydro-2H-pyran-4-yl)imidazolidine-1-carboxamide]	10 to 100 nM	100 to 1000 nM	100 to 1000 nM	100 to 1000 nM	–	–	–	–
Cc1nc(NC(=O)N2CCN([C@@H]3CCOC3)C2=O)ccc1Oc1ccnc(-c2cnn(C)c2)c1 [Example 28, (R)—N-(6-methyl-5-((2-(1-methyl-1H-pyrazol-4-yl)pyridin-4-yl)oxy)pyridin-2-yl)-2-oxo-3-(tetrahydrofuran-3-yl)imidazolidine-1-carboxamide]	–	–	10 to 100 nM	–	< 10 nM	> 1000 nM	100 to 1000 nM	< 10 nM
Cn1cnc(-c2cc(Oc3ccc(NC(=O)N4CCN(C5CCOCC5)C4=O)nc3)ccn2)c1 [Example 83, N-(5-((2-(1-methyl-1H-imidazol-4-yl)pyridin-4-yl)oxy)pyridin-2-yl)-2-oxo-3-(tetrahydro-2H-pyran-4-yl)imidazolidine-1-carboxamide]	10 to 100 nM	–	10 to 100 nM	10 to 100 nM	–	100 to 1000 nM	10 to 100 nM	–
Cn1cc(-c2cc(Oc3cc(F)c(NC(=O)N4CCN(C5CCOCC5)C4=O)cc3Cl)ccn2)cn1 [Example 92, N-(5-chloro-2-fluoro-4-((2-(1-methyl-1H-pyrazol-4-yl)pyridin-4-yl)oxy)phenyl)-2-oxo-3-(tetrahydro-2H-pyran-4-yl)imidazolidine-1-carboxamide]	< 10 nM	10 to 100 nM	10 to 100 nM	10 to 100 nM	–	–	10 to 100 nM	–
O=C(Nc1cc(Cl)c(Oc2ccnc(-c3cn[nH]c3)c2)cc1F)N1CCN(C2CCOCC2)C1=O [Example 94, N-(4-((2-(1H-pyrazol-4-yl)pyridin-4-yl)oxy)-5-chloro-2-fluorophenyl)-2-oxo-3-(tetrahydro-2H-pyran-4-yl)imidazolidine-1-carboxamide]	10 to 100 nM	10 to 100 nM	100 to 1000 nM	100 to 1000 nM	–	–	–	–
Cc1cc(-c2cc(Oc3ccc(NC(=O)N4CCN(C5CCOCC5)C4=O)nc3)ccn2)ccn1 [Example 51, N-(5-((2′-methyl-[2,4′-bipyridin]-4-yl)oxy)pyridin-2-yl)-2-oxo-3-(tetrahydro-2H-pyran-4-yl)imidazolidine-1-carboxamide]	10 to 100 nM	–	10 to 100 nM	100 to 1000 nM	–	> 1000 nM	10 to 100 nM	–
